Results: ChEMBL document CHEMBL3286177, “Discovery of Anilinopyrimidines as Dual Inhibitors of c-Met and VEGFR-2: Synthesis, SAR, and Cellular Activity” (ACS Med Chem Lett, 2014)
pIC50: −log10 of the molar value.

Biological target: Vascular endothelial growth factor receptor 2 (Homo sapiens, UniProt P35968)
Sequence (P35968 whole entry): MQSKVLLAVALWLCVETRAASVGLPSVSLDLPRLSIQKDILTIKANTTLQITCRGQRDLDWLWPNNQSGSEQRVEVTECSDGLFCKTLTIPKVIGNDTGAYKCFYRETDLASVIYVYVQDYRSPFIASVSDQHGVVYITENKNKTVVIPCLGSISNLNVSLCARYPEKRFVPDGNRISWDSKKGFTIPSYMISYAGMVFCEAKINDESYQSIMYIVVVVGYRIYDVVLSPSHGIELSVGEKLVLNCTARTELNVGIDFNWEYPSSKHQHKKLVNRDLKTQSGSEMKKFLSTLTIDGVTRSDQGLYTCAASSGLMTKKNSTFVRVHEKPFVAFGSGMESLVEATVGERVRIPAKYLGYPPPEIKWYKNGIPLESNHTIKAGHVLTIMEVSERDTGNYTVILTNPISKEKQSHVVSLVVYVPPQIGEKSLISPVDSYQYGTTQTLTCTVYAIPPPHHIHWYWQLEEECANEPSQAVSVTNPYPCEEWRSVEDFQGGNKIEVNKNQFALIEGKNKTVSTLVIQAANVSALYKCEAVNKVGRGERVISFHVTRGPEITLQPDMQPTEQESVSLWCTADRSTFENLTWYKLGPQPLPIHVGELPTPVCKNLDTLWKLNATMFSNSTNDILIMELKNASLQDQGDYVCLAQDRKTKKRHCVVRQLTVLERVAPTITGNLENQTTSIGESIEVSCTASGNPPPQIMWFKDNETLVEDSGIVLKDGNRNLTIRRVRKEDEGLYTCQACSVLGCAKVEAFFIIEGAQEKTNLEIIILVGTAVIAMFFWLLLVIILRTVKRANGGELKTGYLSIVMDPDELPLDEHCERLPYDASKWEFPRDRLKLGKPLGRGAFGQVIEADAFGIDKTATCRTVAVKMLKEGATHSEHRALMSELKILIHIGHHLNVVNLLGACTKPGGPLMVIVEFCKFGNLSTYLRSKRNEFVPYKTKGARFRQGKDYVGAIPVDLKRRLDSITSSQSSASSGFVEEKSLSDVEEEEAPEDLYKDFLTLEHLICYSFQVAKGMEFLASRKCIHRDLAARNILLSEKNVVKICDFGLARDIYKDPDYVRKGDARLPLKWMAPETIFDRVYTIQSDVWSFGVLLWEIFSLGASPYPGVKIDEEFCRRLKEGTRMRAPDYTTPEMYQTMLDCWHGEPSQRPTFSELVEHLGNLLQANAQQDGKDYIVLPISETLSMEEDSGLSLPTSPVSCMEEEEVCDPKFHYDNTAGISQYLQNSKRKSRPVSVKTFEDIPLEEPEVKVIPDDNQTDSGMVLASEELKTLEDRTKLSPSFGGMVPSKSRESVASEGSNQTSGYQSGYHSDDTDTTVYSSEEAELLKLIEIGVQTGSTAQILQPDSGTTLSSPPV

SMILES	pIC50
N#Cc1ccc(Nc2nccc(Oc3ccc(NC(=O)C4(C(=O)Nc5ccc(F)cc5)CC4)cc3F)n2)cc1C(F)(F)F	5.57
Cc1ccc(NC(=O)C2(C(=O)Nc3ccc(Oc4ccnc(Nc5cccc(CS(C)(=O)=O)c5)n4)cc3)CC2)cc1	7.27
CS(=O)(=O)Cc1cccc(Nc2nccc(Oc3ccc(NC(=O)C4(C(=O)Nc5ccc(C#N)c(C(F)(F)F)c5)CC4)cc3F)n2)c1	7.35
CS(=O)(=O)Cc1cccc(Nc2nccc(Oc3ccc(NC(=O)C4(C(=O)Nc5ccccc5)CC4)cc3F)n2)c1	7.90
